Assays:
Lagenaria siceraria [1] = experiment: Phytotoxicity against Lagenaria siceraria 'Emphasis' rootstock seedlings; assay type: organism-based; conditions: in vivo
Lagenaria siceraria [2] = experiment: Phytotoxicity against Lagenaria siceraria 'Emphasis' rootstock seedlings assessed as stunting; assay type: organism-based; conditions: in vivo
[3] = system: Cucurbita maxima x Cucurbita moschata; experiment: Phytotoxicity against inter-specific squash hybrid Cucurbita moschata x Cucurbita maxima (Strong tosa) rootstock seedlings assessed as stunting; assay type: organism-based; conditions: in vivo
[4] = system: Cucurbita maxima x Cucurbita moschata; experiment: Phytotoxicity against inter-specific squash hybrid Cucurbita moschata x Cucurbita maxima (Strong tosa) rootstock seedlings; assay type: organism-based; conditions: in vivo
Podosphaera xanthii [5] = experiment: (§1) Fungicidal activity against Podosphaera xanthii (powdery mildew) inoculated in inter-specific squash hybrid Strong tosa (Cucurbita moschata x Cucurbita maxima) rootstock seedlings for 7 days prior to drug application assessed as disease severity on upper surface areas of cotyledonsat 40% in 0.37 ml/L applied once measured 7 days post-drug dose under greenhouse conditions (water Rvb = 10.2%); assay type: functional
Podosphaera xanthii [6] = experiment: Fungicidal activity against Podosphaera xanthii (powdery mildew) inoculated in inter-specific squash hybrid Strong tosa (Cucurbita moschata x Cucurbita maxima) rootstock seedlings for 7 days prior to drug application assessed as incidence of disease symptoms on hypocotyls or upper or lower sides of cotyledons at 40% in 0.37 ml/L applied once measured 7 days post-drug dose under greenhouse …; assay type: functional
Lagenaria siceraria [7] = experiment: Phytotoxicity against Lagenaria siceraria 'Emphasis' rootstock seedlings assessed as stunted growth; assay type: organism-based; conditions: in vivo
Podosphaera xanthii [8] = experiment: (§2) Fungicidal activity against Podosphaera xanthii (powdery mildew) inoculated in squash (Cucurbita pepo) rootstock seedlings continuously after first drug application assessed as disease severity at 40% in 0.37 ml/L applied thrice at 5-days intervals measured 5 days after third application under green house conditions (water Rvb = 3.9%); assay type: functional
Podosphaera xanthii [9] = experiment: as §1, with “at” for “on upper surface areas of cotyledonsat”, “17.5%)” for “10.2%)”; assay type: functional
Podosphaera xanthii [10] = experiment: Fungicidal activity against Podosphaera xanthii (powdery mildew) inoculated in squash (Cucurbita pepo) rootstock seedlings continuously after first drug application assessed as incidence of disease symptoms on hypocotyls or upper or lower sides of cotyledons at 40% in 0.37 ml/L applied thrice at 5-days intervals measured 5 days after third application under green house conditions (water Rvb = …; assay type: functional
Podosphaera xanthii [11] = experiment: as §2, with “Lagenaria siceraria Emphasis” for “squash (Cucurbita pepo) rootstock seedlings”, “53.5%)” for “3.9%)”; assay type: functional
Podosphaera xanthii [12] = experiment: (§3) Fungicidal activity against Podosphaera xanthii (powdery mildew) inoculated in Lagenaria siceraria Emphasis continuously after first drug application assessed as incidence of disease symptoms on hypocotyls or upper or lower sides of cotyledons at 40% in 0.37 ml/L applied thrice at 5-days intervals measured 5 days after third application under green house conditions (water Rvb = 100%); assay type: functional
[13] = system: Cucurbita maxima x Cucurbita moschata; experiment: Phytotoxicity against inter-specific squash hybrid Cucurbita moschata x Cucurbita maxima (Strong tosa) rootstock seedlings assessed as stunted growth; assay type: organism-based; conditions: in vivo
Podosphaera xanthii [14] = experiment: as §3, with “as” for “as incidence of”, “severity” for “symptoms”, “on” for “on hypocotyls or”, “surface areas” for “or lower sides”, “36.8%)” for “100%)”; assay type: functional
Podosphaera xanthii [15] = experiment: as §1, with “lower” for “upper”, “5.1%)” for “10.2%)”; assay type: functional
Podosphaera xanthii [16] = experiment: as §3, with “as” for “as incidence of”, “severity” for “symptoms”, “on” for “on hypocotyls or upper or”, “surface areas” for “sides”, “13.9%)” for “100%)”; assay type: functional
Podosphaera xanthii [17] = experiment: as §1, with “20.6%” for “40%”, “1.36” for “0.37”; assay type: functional
Podosphaera xanthii [18] = experiment: (§4) Fungicidal activity against Podosphaera xanthii (powdery mildew) inoculated in Lagenaria siceraria Emphasis continuously after first drug application assessed as disease severity on upper surface areas of cotyledons at 20.6% in 1.36 ml/L applied thrice at 5-days intervals measured 5 days after third application under green house conditions (water Rvb = 36.8%); assay type: functional
Podosphaera xanthii [19] = experiment: Fungicidal activity against Podosphaera xanthii (powdery mildew) inoculated in squash (Cucurbita pepo) rootstock seedlings continuously after first drug application assessed as incidence of disease symptoms on hypocotyls or upper or lower sides of cotyledons at 20.6% in 1.36 ml/L applied thrice at 5-days intervals measured 5 days after third application under green house conditions (water Rvb = …; assay type: functional
Podosphaera xanthii [20] = experiment: Fungicidal activity against Podosphaera xanthii (powdery mildew) inoculated in inter-specific squash hybrid Strong tosa (Cucurbita moschata x Cucurbita maxima) rootstock seedlings for 7 days prior to drug application assessed as incidence of disease symptoms on hypocotyls or upper or lower sides of cotyledons at 20.6% in 1.36 ml/L applied once measured 7 days post-drug dose under greenhouse …; assay type: functional
Podosphaera xanthii [21] = experiment: as §1, with “at 20.6%” for “on upper surface areas of cotyledonsat 40%”, “1.36” for “0.37”, “17.5%)” for “10.2%)”; assay type: functional
Podosphaera xanthii [22] = experiment: as §3, with “20.6%” for “40%”, “1.36” for “0.37”; assay type: functional
Podosphaera xanthii [23] = experiment: as §2, with “20.6%” for “40%”, “1.36” for “0.37”; assay type: functional
Podosphaera xanthii [24] = experiment: as §4, with “lower” for “upper”, “13.9%)” for “36.8%)”; assay type: functional
Podosphaera xanthii [25] = experiment: as §1, with “lower” for “upper”, “20.6%” for “40%”, “1.36” for “0.37”, “5.1%)” for “10.2%)”; assay type: functional
Podosphaera xanthii [26] = experiment: as §4, with “severity” for “severity on upper surface areas of cotyledons”, “53.5%)” for “36.8%)”; assay type: functional
Podosphaera xanthii [27] = experiment: as §1, with “at 22.58%” for “on upper surface areas of cotyledonsat 40%”, “0.47ml/L” for “0.37 ml/L”, “17.5%)” for “10.2%)”; assay type: functional
Podosphaera xanthii [28] = experiment: Fungicidal activity against Podosphaera xanthii (powdery mildew) inoculated in squash (Cucurbita pepo) rootstock seedlings continuously after first drug application assessed as incidence of disease symptoms on hypocotyls or upper or lower sides of cotyledons at 22.58% in 0.47ml/L applied thrice at 5-days intervals measured 5 days after third application under green house conditions (water Rvb = …; assay type: functional
Podosphaera xanthii [29] = experiment: as §2, with “22.58%” for “40%”, “0.47ml/L” for “0.37 ml/L”; assay type: functional
[30] = system: Cucurbita maxima x Cucurbita moschata; experiment: Phytotoxicity against inter-specific squash hybrid Cucurbita moschata x Cucurbita maxima (Strong tosa) rootstock seedlings assessed as severe chlorosis or necrosis on cotyledons; assay type: organism-based; conditions: in vivo
Podosphaera xanthii [31] = experiment: as §1, with “22.58%” for “40%”, “0.47ml/L” for “0.37 ml/L”; assay type: functional
Lagenaria siceraria [32] = experiment: Phytotoxicity against Lagenaria siceraria 'Emphasis' rootstock seedlings assessed as severe chlorosis or necrosis on cotyledons; assay type: organism-based; conditions: in vivo
Podosphaera xanthii [33] = experiment: Fungicidal activity against Podosphaera xanthii (powdery mildew) inoculated in inter-specific squash hybrid Strong tosa (Cucurbita moschata x Cucurbita maxima) rootstock seedlings for 7 days prior to drug application assessed as incidence of disease symptoms on hypocotyls or upper or lower sides of cotyledons at 22.58% in 0.47ml/L applied once measured 7 days post-drug dose under greenhouse …; assay type: functional
Podosphaera xanthii [34] = experiment: as §1, with “lower” for “upper”, “22.58%” for “40%”, “0.47ml/L” for “0.37 ml/L”, “5.1%)” for “10.2%)”; assay type: functional

Structure (SMILES): OO [HYDROGEN PEROXIDE]
- Activity (Lagenaria siceraria [1]): Non-toxic
- Activity (Lagenaria siceraria [2]): Non-toxic
- Activity [3]: Non-toxic
- Activity [4]: Non-toxic

Structure (SMILES): CCCCC(C#N)(Cn1cncn1)c1ccc(Cl)cc1 (stereo not given) [MYCLOBUTANIL]
- Activity (Podosphaera xanthii [5]): 0.08%
- Activity (Podosphaera xanthii [6]): 2.3%
- inhibition (INH) (Lagenaria siceraria [7]): 33%
- Activity (Podosphaera xanthii [8]): 0%
- Activity (Podosphaera xanthii [9]): 0.1%
- Activity (Podosphaera xanthii [10]): 0%
- Activity (Podosphaera xanthii [11]): 4.1%
- Activity (Podosphaera xanthii [12]): 65.1%
- inhibition (INH) [13]: 33%
- Activity (Podosphaera xanthii [14]): 3.1%
- Activity (Podosphaera xanthii [15]): 0.02%
- Activity (Podosphaera xanthii [16]): 0.9%

Structure (SMILES): CC(C)CC(C)c1sccc1NC(=O)c1cn(C)nc1C(F)(F)F (stereo not given) [PENTHIOPYRAD]
- Activity (Podosphaera xanthii [17]): 0%
- Activity (Podosphaera xanthii [18]): 0.9%
- Activity (Podosphaera xanthii [19]): 0%
- Activity (Podosphaera xanthii [20]): 2.3%
- Activity (Podosphaera xanthii [21]): 0.05%
- Activity (Podosphaera xanthii [22]): 14.6%
- Activity (Podosphaera xanthii [23]): 0%
- Activity (Podosphaera xanthii [24]): 0.3%
- Activity (Lagenaria siceraria [2]): Toxic
- Activity (Podosphaera xanthii [25]): 0.03%
- Activity [3]: Toxic
- Activity (Podosphaera xanthii [26]): 1.3%

Structure (SMILES): O=C([O-])O.[K+] [POTASSIUM BICARBONATE]
- Activity (Lagenaria siceraria [1]): Non-toxic
- Activity (Lagenaria siceraria [2]): Non-toxic
- Activity [3]: Non-toxic
- Activity [4]: Non-toxic

Structure (SMILES): Fc1ccc(Oc2ccnc3cc(Cl)cc(Cl)c23)cc1 [QUINOXYFEN]
- Activity (Podosphaera xanthii [27]): 1.8%
- Activity (Podosphaera xanthii [28]): 23.4%
- Activity (Podosphaera xanthii [29]): 0.43%
- Activity [30]: Toxic
- Activity (Podosphaera xanthii [31]): 1.2%
- Activity (Lagenaria siceraria [32]): Toxic
- Activity (Podosphaera xanthii [33]): 14.6%
- Activity (Podosphaera xanthii [34]): 0.3%

Source: ChEMBL document CHEMBL3044926, “Controlling powdery mildew on cucurbit rootstock seedlings in the greenhouse with fungicides and biofungicides” (Crop Prot, 2012)
